Values quoted from earlier work in US7205008B2, “Methods of treating Alzheimer's disease and other amyloidoses using Hypericum perforatum and derivatives thereof” (ProteoTech, Inc., priority 2000, dated 2007).

## Cc1cc(O)c2c(=O)c3c(O)cc(O)c4c5c(O)cc(O)c6c(=O)c7c(O)cc(C)c8c1c2c(c34)c(c78)c65 [hypericin]
After swallowing a pill of Hypericum perforatum, estimated
  fraction of hypericin absorbed: about 20%
Dose of 0.75 mg of hypericin
  time it lasts in the bloodstream: more than a day
